Data reported in the supplement of paper PMC10307832.

Experiments:
Assay in all cases: relative viability (nuclei count vs DMSO), 5 days (fraction); higher = more cells survive
201T = test system: 201T
In short: (§1)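 A single step with final 0.05% Triton X-100, 1% formaldehyde and 1 ug/ml Hoechst fixed the cells and stained nuclei 5 days after treatment. Lung cancer cell lines in 1536-well plates had been treated by pin tool the day after seeding with one drug alone or a fixed anchor-drug dose plus five library-drug doses (not always all listed) in √10 steps, and nuclei were counted on 4× images. Relative viability is the ratio of nuclei in treated wells to nuclei in vehicle wells, taken as the median of duplicate plates.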

A-427 = test system: A-427
In short: as §1

COR-L23 = test system: COR-L23
In short: as §1

H3255 = test system: H3255
In short: as §1

HCC-44 = test system: HCC-44
In short: as §1

LC-2-ad = test system: LC-2-ad
In short: as §1

LCLC-103H = test system: LCLC-103H
In short: as §1

LCLC-97TM1 = test system: LCLC-97TM1
In short: as §1

LK-2 = test system: LK-2
In short: as §1

LU99A = test system: LU99A
In short: as §1

NCI-H1650 = test system: NCI-H1650
In short: as §1

NCI-H1793 = test system: NCI-H1793
In short: as §1

NCI-H2347 = test system: NCI-H2347
In short: as §1

NCI-H23 = test system: NCI-H23
In short: as §1

NCI-H460 = test system: NCI-H460
In short: as §1

NCI-H596 = test system: NCI-H596
In short: as §1

NCI-H727 = test system: NCI-H727
In short: as §1

PC-14 = test system: PC-14
In short: as §1

SW 1573 = test system: SW 1573
In short: as §1

SW 900 = test system: SW 900
In short: as §1

Work on Cc1sc2c(c1C)C(c1ccc(Cl)cc1)=N[C@@H](CC(=O)OC(C)(C)C)c1nnc(C)n1-2 [JQ1] + Nc1ncn([C@H]2C[C@H](O)[C@@H](CO)O2)c(=O)n1 [Decitabine] (partner 2 µM) yielded a relative viability (201T; first compound 0.04 µM) of 0.88, a relative viability (201T; first compound 0.4 µM) of 0.694 and a relative viability (201T; first compound 1.265 µM) of 0.527. The relative viability (201T; first compound 4 µM) was 0.453, the relative viability (A-427; first compound 0.04 µM) was 0.57 and the relative viability (A-427; first compound 0.1265 µM) was 0.506. The relative viability (A-427; first compound 0.4 µM) was 0.591, the relative viability (A-427; first compound 1.265 µM) was 0.495 and the relative viability (A-427; first compound 4 µM) was 0.478. The relative viability (COR-L23; first compound 0.04 µM) was 0.421, the relative viability (COR-L23; first compound 0.1265 µM) was 0.351 and the relative viability (COR-L23; first compound 0.4 µM) was 0.387. For the same compound, the relative viability (COR-L23; first compound 1.265 µM) was 0.272, the relative viability (COR-L23; first compound 4 µM) was 0.332 and the relative viability (H3255; first compound 0.04 µM) was 0.562. For the same compound, the relative viability (H3255; first compound 0.4 µM) was 0.539, the relative viability (H3255; first compound 1.265 µM) was 0.305 and the relative viability (H3255; first compound 4 µM) was 0.249. It also gave a relative viability (HCC-44; first compound 0.04 µM) of 0.955, a relative viability (HCC-44; first compound 0.1265 µM) of 0.63 and a relative viability (HCC-44; first compound 0.4 µM) of 0.834. For the same compound, the relative viability (HCC-44; first compound 1.265 µM) was 0.903, the relative viability (HCC-44; first compound 4 µM) was 0.516 and the relative viability (LC-2-ad; first compound 0.04 µM) was 0.754. The relative viability (LC-2-ad; first compound 0.1265 µM) was 0.621, the relative viability (LC-2-ad; first compound 0.4 µM) was 0.708 and the relative viability (LC-2-ad; first compound 1.265 µM) was 0.574. The relative viability (LC-2-ad; first compound 4 µM) was 0.3, the relative viability (LCLC-103H; first compound 0.04 µM) was 0.684 and the relative viability (LCLC-103H; first compound 0.1265 µM) was 0.575. For the same compound, the relative viability (LCLC-103H; first compound 0.4 µM) was 0.544, the relative viability (LCLC-103H; first compound 1.265 µM) was 0.48 and the relative viability (LCLC-103H; first compound 4 µM) was 0.542. For the same compound, the relative viability (LCLC-97TM1; first compound 0.04 µM) was 0.231, the relative viability (LCLC-97TM1; first compound 0.1265 µM) was 0.223 and the relative viability (LCLC-97TM1; first compound 0.4 µM) was 0.188. The relative viability (LCLC-97TM1; first compound 1.265 µM) was 0.156, the relative viability (LCLC-97TM1; first compound 4 µM) was 0.125 and the relative viability (LK-2; first compound 0.04 µM) was 0.272. The relative viability (LK-2; first compound 0.1265 µM) was 0.351, the relative viability (LK-2; first compound 0.4 µM) was 0.27 and the relative viability (LK-2; first compound 1.265 µM) was 0.132. It also gave a relative viability (LK-2; first compound 4 µM) of 0.129, a relative viability (LU99A; first compound 0.04 µM) of 0.932 and a relative viability (LU99A; first compound 0.4 µM) of 0.623. The relative viability (LU99A; first compound 1.265 µM) was 0.293, the relative viability (LU99A; first compound 4 µM) was 0.254 and the relative viability (NCI-H1650; first compound 0.04 µM) was 0.442. It also gave a relative viability (NCI-H1650; first compound 0.1265 µM) of 0.44, a relative viability (NCI-H1650; first compound 0.4 µM) of 0.333 and a relative viability (NCI-H1650; first compound 1.265 µM) of 0.185. The relative viability (NCI-H1650; first compound 4 µM) was 0.146, the relative viability (NCI-H1793; first compound 0.04 µM) was 0.557 and the relative viability (NCI-H1793; first compound 0.1265 µM) was 0.433. It also gave a relative viability (NCI-H1793; first compound 0.4 µM) of 0.468, a relative viability (NCI-H1793; first compound 1.265 µM) of 0.418 and a relative viability (NCI-H1793; first compound 4 µM) of 0.484. For the same compound, the relative viability (NCI-H2347; first compound 0.04 µM) was 0.664, the relative viability (NCI-H2347; first compound 0.1265 µM) was 0.6 and the relative viability (NCI-H2347; first compound 0.4 µM) was 0.58. The relative viability (NCI-H2347; first compound 1.265 µM) was 0.506, the relative viability (NCI-H2347; first compound 4 µM) was 0.437 and the relative viability (NCI-H23; first compound 0.04 µM) was 0.323. For the same compound, the relative viability (NCI-H23; first compound 0.1265 µM) was 0.3, the relative viability (NCI-H23; first compound 0.4 µM) was 0.303 and the relative viability (NCI-H23; first compound 1.265 µM) was 0.244. The relative viability (NCI-H23; first compound 4 µM) was 0.211, the relative viability (NCI-H460; first compound 0.04 µM) was 0.488 and the relative viability (NCI-H460; first compound 0.1265 µM) was 0.344. For the same compound, the relative viability (NCI-H460; first compound 0.4 µM) was 0.296, the relative viability (NCI-H460; first compound 1.265 µM) was 0.165 and the relative viability (NCI-H460; first compound 4 µM) was 0.226. The relative viability (NCI-H596; first compound 0.04 µM) was 1.04, the relative viability (NCI-H596; first compound 0.1265 µM) was 0.978 and the relative viability (NCI-H596; first compound 0.4 µM) was 0.679. For the same compound, the relative viability (NCI-H596; first compound 1.265 µM) was 0.611, the relative viability (NCI-H596; first compound 4 µM) was 0.62 and the relative viability (NCI-H727; first compound 0.04 µM) was 1. It also gave a relative viability (NCI-H727; first compound 0.1265 µM) of 0.877, a relative viability (NCI-H727; first compound 0.4 µM) of 0.506 and a relative viability (NCI-H727; first compound 1.265 µM) of 0.597. For the same compound, the relative viability (NCI-H727; first compound 4 µM) was 0.649, the relative viability (PC-14; first compound 0.04 µM) was 0.188 and the relative viability (PC-14; first compound 0.1265 µM) was 0.19. For the same compound, the relative viability (PC-14; first compound 0.4 µM) was 0.185, the relative viability (PC-14; first compound 1.265 µM) was 0.0999 and the relative viability (PC-14; first compound 4 µM) was 0.117. For the same compound, the relative viability (SW 1573; first compound 0.04 µM) was 0.366, the relative viability (SW 1573; first compound 0.1265 µM) was 0.443 and the relative viability (SW 1573; first compound 0.4 µM) was 0.393. For the same compound, the relative viability (SW 1573; first compound 1.265 µM) was 0.216, the relative viability (SW 1573; first compound 4 µM) was 0.275 and the relative viability (SW 900; first compound 0.04 µM) was 0.431. The relative viability (SW 900; first compound 0.1265 µM) was 0.472, the relative viability (SW 900; first compound 0.4 µM) was 0.426 and the relative viability (SW 900; first compound 1.265 µM) was 0.307. For the same compound, the relative viability (SW 900; first compound 4 µM) was 0.235.
